Source: PMC5750651, “Disposition, Metabolism and Histone Deacetylase and Acetyltransferase Inhibition Activity of Tetrahydrocurcumin and Other Curcuminoids” (Pharmaceutics, 2017)
“Also recorded” adds a separate entry of the source.

Assays:
[1] = biological target: T1, COX-1 (Ovis aries, UniProt P05979); assay: COX inhibitor screening assay kit, COX-1; format: biochemical; conditions: mean ± SD
T1 construct: purchased Cayman Chemical 560131
T1 sequence (P05979 25-600): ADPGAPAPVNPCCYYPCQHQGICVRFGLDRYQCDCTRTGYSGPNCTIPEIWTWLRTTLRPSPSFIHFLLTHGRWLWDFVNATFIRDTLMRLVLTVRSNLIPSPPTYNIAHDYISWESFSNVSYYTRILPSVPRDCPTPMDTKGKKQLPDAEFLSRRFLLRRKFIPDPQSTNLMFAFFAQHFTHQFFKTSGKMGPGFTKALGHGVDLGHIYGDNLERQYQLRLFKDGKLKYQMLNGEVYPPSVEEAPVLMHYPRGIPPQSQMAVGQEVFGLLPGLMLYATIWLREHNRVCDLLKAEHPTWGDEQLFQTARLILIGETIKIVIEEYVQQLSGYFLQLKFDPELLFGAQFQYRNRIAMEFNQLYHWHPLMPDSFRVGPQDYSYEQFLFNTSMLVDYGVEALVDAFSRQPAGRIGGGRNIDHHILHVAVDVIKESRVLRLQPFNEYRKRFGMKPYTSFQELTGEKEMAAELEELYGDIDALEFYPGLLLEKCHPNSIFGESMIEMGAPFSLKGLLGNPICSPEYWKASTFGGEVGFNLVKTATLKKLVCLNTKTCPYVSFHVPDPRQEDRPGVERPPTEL
Experimental: The assay was performed in quadruplet using a COX Inhibitor Screening Assay Kit from Cayman Chemical (Cat. No. 560131) according to the manufacturer’s instructions.

[2] = Total antioxidant capacity assay kit (ABTS, Trolox equivalents); conditions: with respect to Trolox
[3] = Pharmacokinetic study of THC after oral gavage, serum and urine by UHPLC-MS/MS; conditions: rat, 500 mg/kg oral
[4] = biological target: T2, 15-lipoxygenase derived from soybean (Glycine max, UniProt P08170); assay: Lipoxygenase inhibitor screening assay kit; conditions: for lipoxygenase inhibition (in words): 1, 10 and 250 μg/mL tested, versus control
T2 sequence (P08170 1-839): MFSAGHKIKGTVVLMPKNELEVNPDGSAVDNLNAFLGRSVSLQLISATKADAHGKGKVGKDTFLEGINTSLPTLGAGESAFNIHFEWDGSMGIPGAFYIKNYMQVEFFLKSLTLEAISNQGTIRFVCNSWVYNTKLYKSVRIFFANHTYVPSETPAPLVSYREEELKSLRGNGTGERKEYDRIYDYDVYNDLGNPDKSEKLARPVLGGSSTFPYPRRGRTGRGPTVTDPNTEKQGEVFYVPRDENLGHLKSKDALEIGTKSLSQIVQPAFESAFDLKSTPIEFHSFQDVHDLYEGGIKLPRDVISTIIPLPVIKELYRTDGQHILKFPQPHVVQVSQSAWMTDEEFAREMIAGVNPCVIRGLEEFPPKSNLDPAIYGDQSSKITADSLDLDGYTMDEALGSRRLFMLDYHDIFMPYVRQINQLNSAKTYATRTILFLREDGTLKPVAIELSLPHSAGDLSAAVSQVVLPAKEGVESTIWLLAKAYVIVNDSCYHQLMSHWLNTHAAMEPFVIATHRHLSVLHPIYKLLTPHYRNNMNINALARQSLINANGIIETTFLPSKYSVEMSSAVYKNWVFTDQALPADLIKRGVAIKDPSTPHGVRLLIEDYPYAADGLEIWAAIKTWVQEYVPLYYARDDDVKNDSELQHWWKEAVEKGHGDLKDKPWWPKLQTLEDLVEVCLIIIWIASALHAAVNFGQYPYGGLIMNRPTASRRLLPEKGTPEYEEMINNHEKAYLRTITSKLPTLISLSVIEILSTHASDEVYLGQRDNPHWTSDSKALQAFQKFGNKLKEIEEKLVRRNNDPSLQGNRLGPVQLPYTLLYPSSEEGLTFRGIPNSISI

[5] = biological target: CYP2D6 (Homo sapiens, UniProt P10635); assay: Vivid CYP450 screening kit, CYP2D6; conditions: 0.01-100 μM
Experimental: CYP2C9, CYP3A4, CYP1A2 and CYP2D6 assays were performed to assess metabolism and inhibition of human P450 isozymes involved using Vivid® CYP450 screening kits and CYP450 BACULOSOMES® Plus Reagents. CYP450 BACULOSOMES® Plus Reagents express only one CYP450 enzyme, preventing metabolism by other CYP450s. For CYP2C9, the substrate was BOMF and the positive control inhibitor sulfaphenazole; for CYP3A4, DBOMF was the substrate and ketoconazole the positive control inhibitor; for CYP1A2, the substrate was EOMCC and the positive control inhibitor naphthoflavone; for CYP2D6, the substrate was EOMCC and the positive control inhibitor quinidine. The assays were performed using the excitation and emission wavelengths recommended by the manufacturer. […] The plate was incubated for 10 min at room temperature (25 ± 1 °C) on a plate shaker. Then, 10 μL of Vivid® Substrate was added to each well to start the reaction. […] The assay was done in triplicate. The reading was performed at 1 min intervals for 60 min. Inhibition was calculated as (1 − (X − B/A − B)) × 100%, where X was the average of compound fluorescence, A was the average of solvent control and B was the average of inhibition in the presence of positive inhibitor control. The percent inhibition was calculated relative to a fixed concentration of the positive control. […]

[6] = biological target: T3, HDAC1 (Homo sapiens, UniProt Q13547); assay: HDAC1 inhibitor screening assay kit (fluorescence); format: biochemical
T3 construct: purchased Cayman 10011564
T3 sequence (Q13547 whole entry): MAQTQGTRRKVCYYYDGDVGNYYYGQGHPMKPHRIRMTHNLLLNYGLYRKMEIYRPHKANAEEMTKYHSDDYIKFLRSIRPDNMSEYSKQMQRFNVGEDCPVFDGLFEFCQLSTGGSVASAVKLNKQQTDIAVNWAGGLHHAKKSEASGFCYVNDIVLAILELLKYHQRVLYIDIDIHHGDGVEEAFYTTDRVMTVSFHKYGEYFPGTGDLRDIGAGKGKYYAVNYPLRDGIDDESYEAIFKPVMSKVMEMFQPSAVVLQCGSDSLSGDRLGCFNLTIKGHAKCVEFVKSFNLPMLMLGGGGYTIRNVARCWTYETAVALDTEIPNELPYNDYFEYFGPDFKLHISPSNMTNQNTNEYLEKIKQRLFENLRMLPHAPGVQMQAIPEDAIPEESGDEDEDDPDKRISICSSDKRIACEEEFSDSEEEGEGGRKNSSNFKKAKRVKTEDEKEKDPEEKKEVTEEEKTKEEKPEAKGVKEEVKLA
Description: Data for the PCAF and HDAC1 inhibition and viability assays were used to derive percent changes based on no treatment controls.

Chain of CYP2D6 (P10635 whole entry): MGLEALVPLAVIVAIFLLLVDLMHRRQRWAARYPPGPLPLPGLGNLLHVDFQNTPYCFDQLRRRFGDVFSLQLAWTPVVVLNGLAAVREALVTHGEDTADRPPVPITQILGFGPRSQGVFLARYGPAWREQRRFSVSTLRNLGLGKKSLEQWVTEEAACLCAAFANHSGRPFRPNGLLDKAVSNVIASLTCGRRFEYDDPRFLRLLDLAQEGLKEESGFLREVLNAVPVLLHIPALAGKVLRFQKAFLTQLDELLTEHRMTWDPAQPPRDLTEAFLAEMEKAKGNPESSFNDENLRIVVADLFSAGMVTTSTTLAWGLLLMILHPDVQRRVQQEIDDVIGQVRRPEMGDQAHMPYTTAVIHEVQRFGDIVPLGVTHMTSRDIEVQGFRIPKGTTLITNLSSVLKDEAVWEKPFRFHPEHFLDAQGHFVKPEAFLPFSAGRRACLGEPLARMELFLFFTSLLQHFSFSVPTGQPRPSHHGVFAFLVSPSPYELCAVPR

Structure (SMILES) | IC50 [1] | concentration of greatest antioxidant effect [2] | time of peak serum THC concentration [3] | serum THC maxima of the two redistribution phases ([3]; at 6 and 24 h) | maximum rate of urinary excretion ([3]; at 2 h) | total amount of THC excreted unchanged in urine ([3]; at 24 h) | serum THC concentration found up to 20 h later ([3]; up to 20 h after the peak) | lipoxygenase inhibition (in words) [4] | lowest concentration inhibiting lipoxygenase ([4]; soybean 15-lipoxygenase, linoleic acid substrate) | CYP2D6 inhibition (in words) [5] | HDAC1 inhibition (in words) ([6]; 0.1-250 μg/mL) | lipoxygenase inhibition (in words) ([4]; listed as calebin-A) | IC50 ([6]; mean ± SD)
COc1cc(CCC(=O)CC(=O)CCc2ccc(O)c(OC)c2)ccc1O [THC, tetrahydrocurcumin] | 918 ± 1300 µM | 100 µM | 1 h | about 1 μg/mL | under 3 μg/h | up to 8 μg | greater than 1 μg/mL | inhibited soybean 1,5-lipoxygenase at all doses tested; also recorded: potent lipoxygenase inhibition | ≤ 1 µM | did not show a consistent dose-response inhibition | no inhibitory activity | – | –
COc1cc(/C=C/C(=O)COC(=O)/C=C/c2ccc(O)c(OC)c2)ccc1O [Calebin-A, calebin-A] | 1070 ± 490 µM | 100 µM | – | – | – | – | – | did not show any activity | – | did not show a consistent dose-response inhibition | – | no such inhibitory activity | 61.3 ± 11 µM
